Each block holds one compound with its values, some of them ahead of it.
Experiments:
[1] = molecular target: T1, SM80.1 (Solanum virginianum, UniProt A0A158RFR1); experiment: X-ray crystal structure, […] Å; format: binding; details: crystals from PEG 3350, sodium malonate, 25°C
T1 construct: native protein from seeds (ammonium sulphate fraction, gel filtration); 45 kDa band; homotrimer; 392 residues in structure
T1 sequence (A0A158RFR1 1-392): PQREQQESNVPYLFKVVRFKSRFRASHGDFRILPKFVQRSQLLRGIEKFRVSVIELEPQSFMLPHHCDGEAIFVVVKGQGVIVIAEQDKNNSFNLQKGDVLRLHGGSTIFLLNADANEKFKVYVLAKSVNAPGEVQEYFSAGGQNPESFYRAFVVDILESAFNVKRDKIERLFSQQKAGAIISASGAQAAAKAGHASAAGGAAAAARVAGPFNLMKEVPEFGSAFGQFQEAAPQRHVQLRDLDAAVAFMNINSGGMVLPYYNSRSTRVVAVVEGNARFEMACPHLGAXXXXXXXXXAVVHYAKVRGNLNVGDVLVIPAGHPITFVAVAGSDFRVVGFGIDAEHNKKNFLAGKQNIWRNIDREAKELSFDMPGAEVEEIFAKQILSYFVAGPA

[2] = molecular target: SM80.1, 7S vicilin from Solanum melongena (eggplant) seeds (Solanum melongena); experiment: crystal structure; R32 crystal form, 1.5 A; one monomer in the asymmetric unit, trimer formed around the threefold crystallographic axis; crystals grown in 10% (w/v) PEG 3350, 1.5 M-2 M sodium malonate, hanging drop, 25°C

Compound: CC(=O)O [ACT, acetate]
X-ray crystal structure, 1.5 Å ([1]; bound without being listed in crystallisation mix, C-terminal beta-barrel pocket (Tyr260, Asn262, Arg267, Lys346)): Acetate moiety was present in the corresponding pocket in the C-terminal domain

Compound: O=C1CC[C@@H](C(=O)O)N1 [PCA, pyroglutamate]
X-ray crystal structure, 1.5 Å ([1]; co-purified endogenous ligand, N-terminal beta-barrel pocket (His65, Cys67)): The N-terminal domain has cyclic lactam of glutamate, called pyroglutamate.

stoichiometry N [2]: 3
Compound: SM80.1, 7S vicilin from Solanum melongena (eggplant) seeds (natural protein)

— article PMC4804240, “Crystal structure of the vicilin from Solanum melongena reveals existence of different anionic ligands in structurally similar pockets” (Scientific Reports, 2016)
